From patent publication US8202856B2 (Merck Serono SA, priority 2007, dated 2012)

Key:
S1P1 receptor = S1P1 receptor (Homo sapiens, UniProt P21453); assay: 35S-GTPγS binding, membranes from CHO cells expressing S1P1; type: biochemical; conditions: CHO cell membranes expressing S1P1
In short: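 Membranes (1–10 μg) from CHO cells expressing the receptor were incubated with compound in 20 mM HEPES pH 7.4, 10 mM MgCl2, 140 mM NaCl, 1.7 μM GDP, saponin and 0.2% BSA. [35S]GTPγS (added at 1.5 nM) was then bound for 60 min at 30 °C. Membrane-bound radioactivity, averaged over triplicates, is expressed relative to S1P activation (n=2).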

S1P3 receptor = S1P3 receptor (Homo sapiens, UniProt Q99500); assay: 35S-GTPγS binding, membranes from CHO cells expressing S1P3; type: biochemical; conditions: CHO cell membranes expressing S1P3
Description: Receptor binding assay: Membranes were prepared from CHO cells expressing S1P1 or S1P3 for use in ligand and 35S-GTPTS binding studies. Cells were suspended in 50 mM TRIS, pH 7.4, 2 mM EDTA, 250 mM Sucrose (buffer A) and 1× Complete protease inhibitor cocktail (Roche), and disrupted at 4° C. by nitrogen decompression using a cell disruption bomb (Parr Instrument). Following centrifugation at 1000 RPM for 10 min at 4° C., the supernatant was suspended in buffer A and centrifuged again at 19000 RPM for 60 min at 4° C. The pellet was then suspended in 10 mM HEPES, pH 7.4, 1 mM EDTA, 250 mM Sucrose (Buffer B), and 1× Complete EDTA-free protease inhibitor cocktail and homogenized using a potter. Membranes were flash frozen in liquid nitrogen and stored at −80° C. [33P]sphingosine 1-phosphate (3000 Ci/mmol; American Radiolabeled Chemicals, Inc.) was added to test compounds in DMSO. Membranes and WGA SPA beads (GE Healthcare) were added to give a final volume of 100 μl in 96-well plates with assay concentrations of […] [33P]sphingosine 1-phosphate (respectively for S1P1 or S1P3), 50 mM HEPES, pH 7.5, 5 mM MgCl2, 100 mM NaCl, 0.4% fatty acid-free BSA, 1-5 μg/well of proteins and 100 μg/well of WGA SPA beads. Binding was performed for 60 min at room temperature on a shaker and bound radioactivity was measured on a PerkinElmer 1450 MicroBeta counter. Specific binding was calculated by subtracting remaining radioactivity in the presence of 1000-fold excess of unlabeled S1P. Binding data were analyzed using the GraphPad Prism program.
Measurements of ^35S-GTPγS Binding: Membranes (1 to 10 μg protein) prepared as described above, were incubated in 96-well Scintiplates (PerkinElmer) with test compounds diluted in DMSO, in 180 μl of 20 mM HEPES, pH 7.4, 10 mM MgCl2, 2 μg/well Saponin, 0.2% fatty acid free BSA (Assay buffer), 140 mM NaCl and 1.7 μM GDP. The assay was initiated with the addition of 20 μl of 1.5 nM [35S]-GTPγS (1100 Ci/mmol; GE Healthcare) in assay buffer. After 60 min incubation at 30° C. on a shaker, plates were centrifuged for 10 min at 2000 RPM. Supernatant was discarded and membrane bound radioactivity was measured on a PerkinElmer 1450 MicroBeta counter. Triplicate samples were averaged and expressed as response relative to S1P activation in absence of compound (n=2).

Sequence of S1P3 receptor (Q99500 whole entry): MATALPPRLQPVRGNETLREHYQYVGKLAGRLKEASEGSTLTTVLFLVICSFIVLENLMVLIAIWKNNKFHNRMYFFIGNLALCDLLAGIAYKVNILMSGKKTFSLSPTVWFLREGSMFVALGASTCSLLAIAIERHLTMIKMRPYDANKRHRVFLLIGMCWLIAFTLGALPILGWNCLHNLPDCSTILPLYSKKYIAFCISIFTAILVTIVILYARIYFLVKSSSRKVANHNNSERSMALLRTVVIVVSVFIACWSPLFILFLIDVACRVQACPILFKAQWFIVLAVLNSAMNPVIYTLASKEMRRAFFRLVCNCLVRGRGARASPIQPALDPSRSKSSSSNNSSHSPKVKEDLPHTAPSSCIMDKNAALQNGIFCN
Sequence of S1P1 receptor (P21453 whole entry): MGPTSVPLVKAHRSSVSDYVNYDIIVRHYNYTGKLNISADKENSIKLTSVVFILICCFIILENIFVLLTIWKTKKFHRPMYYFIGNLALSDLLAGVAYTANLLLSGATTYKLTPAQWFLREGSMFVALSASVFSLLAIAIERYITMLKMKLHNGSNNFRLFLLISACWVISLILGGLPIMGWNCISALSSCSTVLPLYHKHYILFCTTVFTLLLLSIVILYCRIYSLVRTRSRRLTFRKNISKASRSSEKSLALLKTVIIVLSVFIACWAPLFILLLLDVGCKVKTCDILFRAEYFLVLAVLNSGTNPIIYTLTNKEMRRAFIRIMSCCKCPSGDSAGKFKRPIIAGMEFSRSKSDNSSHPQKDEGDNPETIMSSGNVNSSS

| Structure (SMILES) | EC50 (S1P1 receptor) | EC50 (S1P3 receptor) |
| --- | --- | --- |
| COc1cccc(-c2noc(-c3nnn(-c4ccccc4F)c3-c3ccncc3)n2)c1 [Example 51, 4-{1-(2-fluorophenyl)-4-[3-(3-methoxyphenyl)-1,2,4-oxadiazol-5-yl]-1H-1,2,3-triazol-5-yl}pyridine] | 10 nM | 741 nM |
| Cc1cccc(-c2noc(-c3nnn(-c4ccccc4F)c3-c3ccncc3)n2)c1 [Example 104, 4-{1-(2-fluorophenyl)-4-[3-(3-methylphenyl)-1,2,4-oxadiazol-5-yl]-1H-1,2,3-triazol-5-yl}pyridine] | 14 nM | 660 nM |
| CCCCc1c(-c2nc(-c3ccccc3F)no2)nnn1-c1ccccc1F [Example 16, 5-5-[5-Butyl-1-(2-fluorophenyl)-1H-1,2,3-triazole-4-yl]-3-(2-fluorophenyl)-1,2,4-oxadiazole] | 158 nM | 7360 nM |
| O=C(O)CCNCc1ccc(-c2noc(-c3nnn(-c4ccccc4F)c3-c3ccncc3)n2)cc1 [Example 127, N-(4-{5-[1-(2-fluorophenyl)-5-pyridin-4-yl-1H-1,2,3-triazol-4-yl]-1,2,4-oxadiazol-3-yl}benzyl)-beta-alanine] | 1 nM | 318 nM |
| O=C(O)C1CN(Cc2ccc(-c3noc(-c4nnn(-c5ccccc5F)c4-c4ccncc4)n3)cc2)C1 [Example 113, 1-(4-{5-[1-(2-fluorophenyl)-5-pyridin-4-yl-1H-1,2,3-triazol-4-yl]-1,2,4-oxadiazol-3-yl}benzyl)azetidine-3-carboxylic acid] | 2 nM | 1370 nM |
| Fc1ccccc1-n1nnc(-c2nc(-c3cccc(Cn4cncn4)c3)no2)c1-c1ccncc1 [Example 61, 4-(1-(2-fluorophenyl)-4-{3-[3-(1H-1,2,4-triazol-1-ylmethyl)phenyl]-1,2,4-oxadiazol-5-yl}-1H-1,2,3-triazol-5-yl)pyridine] | 182 nM | > 20000 nM |
| CS(=O)(=O)c1cccc(-c2noc(-c3nnn(-c4ccccc4F)c3-c3ccncc3)n2)c1 [Example 52, 4-(1-(2-fluorophenyl)-4-{3-[3-(methylsulfonyl)phenyl]-1,2,4-oxadiazol-5-yl}-1H-1,2,3-triazol-5-yl)pyridine] | 33 nM | > 20000 nM |
| O=C(O)c1ccc(-c2noc(-c3nnn(-c4ccccc4F)c3-c3ccccc3)n2)c(F)c1 [Example 33, 3-Fluoro-4-{5-[1-(2-fluorophenyl)-5-phenyl-1H-1,2,3-triazole-4-yl]-1,2,4-oxadiazole-3-yl}benzoic acid] | 501 nM | > 20000 nM |
| Fc1ccccc1-c1noc(-c2nnn(-c3ccccc3F)c2C2CCOCC2)n1 [Example 59, 3-(2-fluorophenyl)-5-[1-(2-fluorophenyl)-5-(tetrahydro-2H-pyran-4-yl)-1H-1,2,3-triazol-4-yl]-1,2,4-oxadiazole] | 154 nM | > 20000 nM |
| COc1ccccc1-c1noc(-c2nnn(-c3ccccc3F)c2-c2ccncc2)n1 [Example 40, 4-{1-(2-fluorophenyl)-4-[3-(2-methoxyphenyl)-1,2,4-oxadiazol-5-yl]-1H-1,2,3-triazol-5-yl}pyridine] | 120 nM | > 20000 nM |
| Fc1ccc(-c2noc(-c3nnn(-c4ccccc4F)c3-c3ccncc3)n2)cc1F [Example 97, 4-[4-[3-(3,4-difluorophenyl)-1,2,4-oxadiazol-5-yl]-1-(2-fluorophenyl)-1H-1,2,3-triazol-5-yl]pyridine] | 60 nM | > 20000 nM |
| COCc1c(-c2nc(-c3ccccc3)no2)nnn1-c1ccccc1F [Example 15, 5-[1-(2-Fluorophenyl)-5-(methoxymethyl)-1H-1,2,3-triazole-4-yl]-3-phenyl-1,2,4-oxadiazole] | 391 nM | > 30000 nM |
| COC(=O)c1cccc(-c2noc(-c3nnn(-c4ccccc4F)c3-c3ccccc3)n2)c1 [Example 20, Methyl 3-{5-[1-(2-fluorophenyl)-5-phenyl-1H-1,2,3-triazole-4-yl]-1,2,4-oxadiazole-3-yl}benzoate] | 84 nM | 8550 nM |
| Fc1ccccc1-n1nnc(-c2nc(-c3cccc(F)c3F)no2)c1-c1ccncc1 [Example 101, 4-[4-[3-(2,3-difluorophenyl)-1,2,4-oxadiazol-5-yl]-1-(2-fluorophenyl)-1H-1,2,3-triazol-5-yl]pyridine] | 9 nM | 214 nM |
| Fc1ccccc1-n1nnc(-c2nc(-c3cccc(C(F)(F)F)c3)no2)c1-c1ccccc1 [Example 21, 5-[1-(2-Fluorophenyl)-5-phenyl-1H-1,2,3-triazole-4-yl]-3-[3-(trifluoromethyl)phenyl]-1,2,4-oxadiazole] | 41 nM | > 30000 nM |
| COCc1c(-c2nc(-c3cccnc3)no2)nnn1-c1ccccc1F [Example 47, 3-{5-[1-(2-fluorophenyl)-5-(methoxymethyl)-1H-1,2,3-triazol-4-yl]-1,2,4-oxadiazol-3-yl}pyridine] | 672 nM | > 20000 nM |
| COCc1c(-c2nc(-c3cccc(S(C)(=O)=O)c3)no2)nnn1-c1ccccc1F [Example 68, 5-[1-(2-fluorophenyl)-5-(methoxymethyl)-1H-1,2,3-triazol-4-yl]-3-[3-(methylsulfonyl)phenyl]-1,2,4-oxadiazole] | 594 nM | > 20000 nM |
| COCc1c(-c2nc(-c3cc(F)ccc3F)no2)nnn1-c1ccccc1F [Example 10, 3-(2,5-Difluorophenyl)-5-[1-(2-fluorophenyl)-5-(methoxymethyl)-1H-1,2,3-triazole-4-yl]-1,2,4-oxadiazole] | 45 nM | > 30000 nM |
| Fc1ccccc1-n1nnc(-c2nc(-c3ccc4[nH]ncc4c3)no2)c1-c1ccncc1 [Example 116, 5-{5-[1-(2-fluorophenyl)-5-pyridin-4-yl-1H-1,2,3-triazol-4-yl]-1,2,4-oxadiazol-3-yl}-1H-indazole] | 4 nM | 164 nM |
| Cc1ccccc1-c1noc(-c2nnn(-c3ccccc3F)c2-c2ccncc2)n1 [Example 121, 4-{1-(2-fluorophenyl)-4-[3-(2-methylphenyl)-1,2,4-oxadiazol-5-yl]-1H-1,2,3-triazol-5-yl}pyridine] | 13 nM | > 20000 nM |
| O=C(O)C1CCN(Cc2ccc(-c3noc(-c4nnn(-c5ccccc5F)c4-c4ccncc4)n3)cc2)CC1 [Example 128, 1-(4-{5-[1-(2-fluorophenyl)-5-pyridin-4-yl-1H-1,2,3-triazol-4-yl]-1,2,4-oxadiazol-3-yl}benzyl)piperidine-4-carboxylic acid] | 8 nM | 2530 nM |
| OC1CCN(Cc2ccc(-c3noc(-c4nnn(-c5ccccc5F)c4-c4ccncc4)n3)cc2)C1 (stereo not drawn) [Example 142, 1-(4-{5-[1-(2-fluorophenyl)-5-pyridin-4-yl-1H-1,2,3-triazol-4-yl]-1,2,4-oxadiazol-3-yl}benzyl)pyrrolidin-3-ol] | 13 nM | 835 nM |
| Oc1ccc(-c2noc(-c3nnn(-c4ccccc4F)c3-c3ccccc3)n2)c(F)c1 [Example 18, 3-Fluoro-4-{5-[1-(2-fluorophenyl)-5-phenyl-1H-1,2,3-triazole-4-yl]-1,2,4-oxadiazole-3-yl}phenol] | 22 nM | 221 nM |
| Fc1ccc(F)c(-c2noc(-c3nnn(-c4ccccc4F)c3-c3cccnc3)n2)c1 [Example 26, 3-[4-[3-(2,5-Difluorophenyl)-1,2,4-oxadiazole-5-yl]-1-(2-fluorophenyl)-1H-1,2,3-triazole-5-yl]pyridine] | 95 nM | > 20000 nM |
| COCCc1c(-c2nc(-c3ccccc3F)no2)nnn1-c1ccccc1F [Example 49, 3-(2-fluorophenyl)-5-[1-(2-fluorophenyl)-5-(2-methoxyethyl)-1H-1,2,3-triazol-4-yl]-1,2,4-oxadiazole] | 119 nM | 13300 nM |
| Fc1ccc(F)c(-c2noc(-c3nnn(-c4ccccc4F)c3C3CCCC3)n2)c1 [Example 77, 5-[5-cyclopentyl-1-(2-fluorophenyl)-1H-1,2,3-triazol-4-yl]-3-(2,5-difluorophenyl)-1,2,4-oxadiazole] | 206 nM | 33 nM |
| COCc1c(-c2nc(-c3ccccc3F)no2)nnn1-c1ccccc1F | 211 nM | > 30000 nM |
